Series [1] deals with OMM1 cells. Briefly: Cell proliferation assay. The class given is cell-based, human. Conditions: OMM1 metastatic melanoma cells. On the procedure: (§1) Human uveal melanoma cell lines and short-term cultures derived from different patients with metastatic malignant melanoma cells were grown in DMEM supplemented with 7% FBS at 37° C. in a humidified atmosphere containing 5% CO2. Lipofectamine™ RNAiMAX and opti-MEM medium were purchased from Invitrogen (San Diego, CA, USA). ABT-263 was obtained from Euromedex and qVD from Clinisciences.

In series [2] the test system is OMM2,5 metastatic melanoma cells. Briefly: Cell proliferation assay. In kind it is cell-based, human. On the procedure:
as §1

Series [3] deals with primary melanoma cells. Briefly: Cell proliferation assay. In kind it is cell-based, human. Particulars: data not shown. As to the method: as §1
Series [4] deals with Mel270 cells. Briefly: Cell death / alive cells by Annexin V/DAPI FACS. The class given is cell-based, human. As to the method: FIG. 5: PERK dampens ABT-263 killing activity. (A) Q-PCR analysis of PERK level in Mel270 uveal melanoma cells treated with control (siCtl) or PERK (siPERK) siRNA for 48 hr. (B) Mel270 cells were treated with control (siCtl) or PERK (siPERK) siRNA for 48 hrs before being exposed to ABT-263 3 μM for 48 hr. FACS analyses of Annexin V/DAPI double staining in […] indicate alive (white) or dead (early, late apoptosis and necrosis in light grey) cells. (C) Mel270 cells were treated with ABT-263 5 μM or GSK2606414 5 μM alone or in combination for 48 h.
Cells were seeded at a density of 100 000 cells/well, in 6-well plate and treated with ABT-263 for indicated time. Cells were harvested using accutase enzyme, washed twice with ice-cold phosphate-buffered saline, resuspended in a buffer (Hepes 250 mM, NaCl 150 mM, KCl 5 mM, MgCl2 2 mM, CaCl2) 2 mM) with DAPI (1 μg/ml) and Annexin V-Alexa Fluor 647 conjugate (1/100) and incubated for 15 minutes at room temperature (25° C.) in the dark. Samples were immediately analyzed by a flow cytometer (MACS QUANT) using a laser at 405 nm excitation with a bandpass filter at 425 nm and 475 nm for DAPI detection and a laser at 635 nm excitation with a bandpass filter at 650 nm and 665 nm for Alexa Fluor 647 dye. Annexin and DAPI mono- or double positive cells were counted as dead cells.

Series [5] deals with OMM1 uveal melanoma cells. Briefly: Mitochondrial membrane potential by TMRE staining. In kind it is cell-based, human. Particulars: OMM1; ABT-263 3 μM or 5 μM, 48 h. On the procedure:
FIG. 1. ABT-263 induces apoptosis of uveal melanoma cells. Detection of the mitochondrial membrane potential using TMRE staining in Mel270 and OMM1 uveal melanoma cells exposed to ABT-263 3 μM or 5 μM for 48 h in the absence or presence of QVD-OPh 20 μM.

In series [6] the test system is PARP, caspase 9 and caspase 3 in primary and metastatic uveal melanoma cells. Briefly: Western blot of PARP and caspases. In kind it is cell-based, human.
The nature of series [7]: Body weight and blood biochemical analysis of xenografted mice. The class given is in vivo. As to the method: FIG. 3. ABT-263 reduces tumor growth in vivo. (A) Primary 92.1 uveal melanoma cells were subcutaneously engrafted into athymic nude mice. Once the tumours reached 100 mm3, mice were treated daily with ABT-263. The arrow indicates the start of the treatment. The growth tumor curves were determined by measuring the tumor volume using the equation V=(L Å˜W2)/2. […] (B) Sub-cutaneous tumor weight from control (Ct) and ABT-263-treated mice is shown. (C) Blood biochemical analysis of mice xenografted with OMM1 cells. Serum activity of alanine transaminase (ALT) and aspartate transaminase (AST) was measured in control and ABT-263 by spectrophotometric methods after the end of treatment. Data are presented as mean±SD (n=5 per group). Animal experiments were performed in accordance with French law and approved by a local institutional ethical committee. The animals were maintained in a temperature-controlled facility (22° C.) on a 12-h light/dark cycle and provided free access to food (standard laboratory chow diet from UAR, Epinay-S/Orge, France). Human Mel270 uvealmelanoma cells were subcutaneously inoculated into 8-week-old female, immune-deficient, athymic, nude FOXN1nu mice (Harlan Laboratory). When the tumors became palpable (0.1-0.2 cm3), the mice received an intraperitoneal injection of ABT-263 (50 mg/kg), dissolved in 10% DMSO 6 times per week. Control mice were injected with DMSO alone. The growth tumor curves were determined after measuring the tumor volume using the equation V=(L×W2)/2. At the end of the experiment, the mice were euthanized by cervical dislocation.

For series [8], the system named is ATF4 and CHOP in 92.1 cells. Briefly: Western blot of ER stress molecules. In kind it is cell-based, human. On the procedure:
(§2) Western blotting was performed as previously described 25,26. Briefly, cell lysates (30 μg) were separated using SDS-PAGE, transferred onto a PVDF membrane and subsequently exposed to the appropriate antibodies, anti-BCL2 (ms-123-PO) was from neomarker, anti-caspase 3 (#610323) was from BD, anti-BAX (#8429) was from sigma, anti-PARP (#9542), anti-BCL-XL (#2762), anti-caspase 9 (#9502) and anti-PUMA (#4976) were from Cell Signaling Technology Inc, anti-MCL1 (#sc-819), anti-NOXA (#56169), and anti-HSP90 (#sc-13119) were from Santa Cruz biotechnology. The proteins were visualized using the ECL system (Amersham). The western blots shown are representative of at least 3 independent experiments.

In series [9] the test system is ER stress molecules in metastatic human uveal melanoma cells. Briefly: Western blot of ER stress molecules. The class given is cell-based. As to the method: as §2
Background: In western blotting, separated proteins are transferred to a membrane and probed.

The test system of series [10] is XBP1 splicing. Briefly: XBP1 splicing (QRT-PCR). The class given is cell-based, human. Conditions: both primary cells and metastatic OMM1 cells. On the procedure: The mRNA was isolated using TRIzol (Invitrogen) according to a standard procedure. QRT-PCR was performed using SYBR® Green I (Eurogentec, Seraing, Belgium) and Multiscribe Reverse Transcriptase (Applied Biosystems) and subsequently monitored using the ABI Prism 7900 Sequence Detection System (Applied Biosystems, Foster City, CA). The detection of the SB34 gene was used to normalize the results. Spliced Xbp1 primers were previously reported27. Primer sequences for each cDNA were designed using either Primer Express Software (Applied Biosystems) or qPrimer depot (http://primerdepot.nci.nih.gov), and these sequences are available upon request.

The conditions of series [11]: single agent, phase I/II; cited from earlier work.
Where [12] appears, read: OMM1-xenografted mice, after end of treatment.

SMILES strings stand for the structures.

Take `CC1(C)CCC(c2ccc(Cl)cc2)=C(CN2CCN(c3ccc(C(=O)NS(=O)(=O)c4ccc(N[C@H](CCN5CCOCC5)CSc5ccccc5)c(S(=O)(=O)C(F)(F)F)c4)cc3)CC2)C1` [ABT-263, 4-[4-[[2-(4-chlorophenyl)-5,5-dimethyl-1-cyclohexen-1-yl]methyl]-1-piperazinyl]-N-[[4-[[(1R)-3-(4-morpholinyl)-1-[(phenylthio)methyl]propyl]amino]-3-[(trifluoromethyl)sulfonyl]phenyl]sulfonyl]-benzamide]: the proliferation entry in [1] is recorded as “strongly reduced proliferation”. For the same molecule, the proliferation entry in [2] was “strongly reduced proliferation”. Further, in [3], the “proliferation, response of primary melanoma cells” value was “highly resistant”. The cell death result in series [4] (ABT-263 3 μM) is given as “do not induce cell death”. The “PARP cleavage and alive cell percentage, used alone” value in [4] (ABT-263 3 μM 48 hr) is on record as “relative low effect”. In addition, the “ABT-263 effect on viable cells combined with GSK2606414” value in series [4] (ABT-263 5 μM + GSK2606414 5 μM, 48 h) is given as “improved”. Besides, in series [4] (siPERK 48 hrs then ABT-263 3 μM 48 hr), the “ABT-263 effects and killing efficacy combined with PERK siRNA” value is “significantly improved”. For the same molecule, in series [5], the “mitochondrial membrane potential ΔΨm” value was “dose-dependently reduced”. In addition, the “cleavage of PARP, caspase 9 and caspase 3” value in series [6] (primary and metastatic cells) is recorded as “dose-dependent cleavage”. The “full-length PARP protein and caspase 3 zymogen” value in series [6] (time course, data not shown) is “time-dependent disappearance”. Moreover, in series [7] (setting [12]), the “serum alanine transaminase (ALT) versus vehicle” value was “no significant differences” and the “serum aspartate transaminase (AST) versus vehicle” value is reported as “no significant differences”. Also, in [7] (in vivo conditions), the hepatotoxicity result is “no hepatotoxicity”. In series [7] (xenografted mice, data not shown), the “body weight versus vehicle” value is “no significant differences”. Further, the “ATF4 and CHOP level” value in series [8] is reported as “enhanced”. For the same molecule, in series [9] (metastatic cell lines), the “PERK and IRE1α phosphorylation” value is “did not detect”. In addition, the “induction of ATF4 and CHOP” value in series [9] (metastatic cells) was “hardly detectable”. Moreover, the XBP1 splicing entry in series [10] was “significantly higher”. Besides, in series [11], the side effects result is recorded as “thrombocytopenia”.

(Values after US20240122938A1, “METHODS AND COMPOSITIONS FOR TREATING UVEAL MELANOMA” (INSERM (INSTITUT NATIONAL DE LA SANTÉ ET DE LA RECHERCHE …, priority 2019, published 2024).)
